A word on the inhibition: it is the change of the read-out against control, counted positive when it falls.

Several values for one entry are separate records, joined by “and”; a condition that tells them apart may be missing. Equal entries are not always repeated. Activity calls are given as the source filed them. The rule behind the calls is not given here.

This experiment has as its target Phospholipase D2 (Homo sapiens) (UniProt O14939). The experiment is described as follows: cellular phospholipase D2 activity inhibition – cell-based (AID 743409). The following applies: cellular PLD2 isoenzyme activity, hits give high values.

Chain of Phospholipase D2 (Homo sapiens) (O14939 whole entry, looked up): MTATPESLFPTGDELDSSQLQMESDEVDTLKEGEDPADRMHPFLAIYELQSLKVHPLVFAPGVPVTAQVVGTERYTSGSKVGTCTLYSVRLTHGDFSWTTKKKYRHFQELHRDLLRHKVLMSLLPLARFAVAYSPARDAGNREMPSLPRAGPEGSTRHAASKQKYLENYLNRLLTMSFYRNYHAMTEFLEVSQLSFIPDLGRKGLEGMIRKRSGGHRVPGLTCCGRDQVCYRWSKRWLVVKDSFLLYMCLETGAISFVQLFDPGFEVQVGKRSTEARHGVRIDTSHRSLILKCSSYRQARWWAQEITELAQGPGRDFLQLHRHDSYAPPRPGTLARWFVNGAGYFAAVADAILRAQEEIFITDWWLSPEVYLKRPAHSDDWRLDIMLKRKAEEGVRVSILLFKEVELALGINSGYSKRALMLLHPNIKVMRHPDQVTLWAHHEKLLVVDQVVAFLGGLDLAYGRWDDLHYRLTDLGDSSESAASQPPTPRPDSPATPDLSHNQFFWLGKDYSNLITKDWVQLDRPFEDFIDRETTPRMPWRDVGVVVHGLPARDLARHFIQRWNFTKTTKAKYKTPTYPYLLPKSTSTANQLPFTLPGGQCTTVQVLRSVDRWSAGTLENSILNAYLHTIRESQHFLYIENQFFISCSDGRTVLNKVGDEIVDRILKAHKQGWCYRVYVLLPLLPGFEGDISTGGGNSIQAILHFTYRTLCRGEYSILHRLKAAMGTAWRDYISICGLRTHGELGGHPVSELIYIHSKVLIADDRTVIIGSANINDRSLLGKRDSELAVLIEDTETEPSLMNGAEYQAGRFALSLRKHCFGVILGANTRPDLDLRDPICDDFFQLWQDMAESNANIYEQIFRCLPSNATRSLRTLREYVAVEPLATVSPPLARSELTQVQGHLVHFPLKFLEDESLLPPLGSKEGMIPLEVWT

Consider `O=C(NCCN1CCC2(CC1)C(=O)NCN2Cc1cccnc1)c1c(Cl)cncc1Cl`, for which the inhibition (at 2 µM) is 3% (inactive).

Consider `O=C(NCCN1CCC2(CC1)C(=O)NCN2Cc1cccnc1)c1ccc2ccccc2n1`, for which the inhibition (at 2 µM) was 31% (inactive).

Consider `O=C(NCCN1CCC2(CC1)C(=O)NCN2Cc1cccnc1)c1cccc2cccnc12`, for which the inhibition (at 2 µM) was 42% (inactive).

`O=C(NCCN1CCC2(CC1)C(=O)NCN2Cc1cccc2ccccc12)c1ccc2ccccc2c1`: the inhibition (at 20 µM) was 100%.

With `O=C(NCCN1CCC2(CC1)C(=O)NCN2c1ccc(C(F)(F)F)nc1)c1ccc2ccccc2c1`, the inhibition (at 2 µM) is 4% (inactive).

In the case of `O=C(NCCN1CCC2(CC1)C(=O)NCN2Cc1cccnc1)c1ccc(Cl)cc1F`, for the setting “at 2 µM”, the inhibition is 18% (inactive).

Turning to `Cc1nc2sc(C(=O)NCCN3CCC4(CC3)C(=O)NCN4Cc3cccnc3)c(N)c2c(C)c1C`, for the setting “at 2 µM”, the inhibition was 8% (inactive).

`O=C(NCCN1CCC2(CC1)C(=O)NCN2CC1CC1)c1ccc2ccccc2c1`: the inhibition (at 20 µM) is 100%.

For the molecule `O=C(NCCN1CCC2(CC1)C(=O)NCN2Cc1cccnc1)c1ccc2cc(F)ccc2c1`, the inhibition (at 2 µM) was 36% (inactive).

Consider `O=C(NCCN1CCC2(CC1)C(=O)NCN2c1ccnc(Cl)c1)c1ccc2ccccc2c1`, for which the inhibition (at 2 µM) is 11% (inactive).

With `O=C(NCCN1CCC2(CC1)C(=O)NCN2Cc1cccnc1)c1ccc2c(c1)C(=O)NC2=O`, the inhibition (at 2 µM) is 0% (inactive).

`O=C(NCCN1CCC2(CC1)C(=O)NCN2Cc1cccnc1)[C@@H]1C[C@H]1c1ccccc1`: the inhibition (at 2 µM) is 20% (inactive).

For `O=C(NCCN1CCC2(CC1)C(=O)NCN2Cc1cccnc1)c1sc2ncccc2c1-n1cccc1`, the inhibition (at 2 µM) is 5% (inactive).

Regarding `O=C(NCCN1CCC2(CC1)C(=O)NCN2Cc1cccnc1)c1ccc(F)cc1`, the inhibition (at 2 µM) was 11% (inactive).

In the case of `O=C(NCCN1CCC2(CC1)C(=O)NCN2Cc1ccc(Cl)cc1)c1ccc2ccccc2c1`, the inhibition (at 20 µM) is 96%.

Consider `O=C(NCCN1CCC2(CC1)C(=O)NCN2Cc1cccnc1)c1cc2ccccc2o1`, for which the inhibition (at 2 µM) was 73%.

As to `O=C(NCCN1CCC2(CC1)C(=O)NCN2c1cccnc1)c1cc(F)c(F)c(F)c1`, the inhibition (at 2 µM) was 0% (inactive).

As for `O=C(NCCN1CCC2(CC1)C(=O)NCN2Cc1cccc(Cl)c1)c1ccc2ccccc2c1`, the inhibition (at 20 µM) is 100%.

In the case of `O=C(NCCN1CCC2(CC1)C(=O)NCN2Cc1cccnc1)c1cccc(Cl)c1`, the inhibition (at 2 µM) is 21% (inactive).

Regarding `O=C(NCCN1CCC2(CC1)C(=O)NCN2Cc1cccnc1)c1ccc(F)cc1C(F)(F)F`, under “at 2 µM”, the inhibition was 0% (inactive).

Consider `O=C(NCCN1CCC2(CC1)C(=O)NCN2Cc1ccccc1)c1ccc2ccccc2c1`, for which, where the note is “at 20 µM”, the inhibition was 99%.

Turning to `O=C(NCCN1CCC2(CC1)C(=O)NCN2Cc1cccnc1)c1ccc(SC(F)(F)F)cc1`, the inhibition (at 2 µM) is 8% (inactive).

Consider `O=C(NCCN1CCC2(CC1)C(=O)NCN2Cc1cccnc1)c1cc2ccccc2[nH]1`, for which the inhibition (at 2 µM) was 100%.

For the molecule `Cn1cc(C(=O)NCCN2CCC3(CC2)C(=O)NCN3Cc2cccnc2)c2ccccc21`, the inhibition (at 2 µM) is 31% (inactive).

As to `O=C(NCCN1CCC2(CC1)C(=O)NCN2Cc1cccnc1)c1cccs1`, for the setting “at 2 µM”, the inhibition was 0%.

For the molecule `Cc1cc(C)c2cc(C(=O)NCCN3CCC4(CC3)C(=O)NCN4Cc3cccnc3)[nH]c2c1`, the inhibition (at 2 µM) is 35% (inactive).

As for `O=C(NCCN1CCC2(CC1)C(=O)NCN2Cc1cccnc1)c1ccc2ccccc2c1Br`, where the note is “at 2 µM”, the inhibition was 61%.

Take `O=C(NCCN1CCC2(CC1)C(=O)NCN2c1cncc(F)c1)c1ccc(Br)cc1`: the inhibition (at 2 µM) was 15% (inactive).

For `O=C(NCCN1CCC2(CC1)C(=O)NCN2Cc1cccnc1)c1nccc2ccccc12`, the inhibition (at 2 µM) is 32% (inactive).

`O=C(NCCN1CCC2(CC1)C(=O)NCN2Cc1ccccn1)c1ccc2ccccc2c1`: where the note is “at 20 µM”, the inhibition is 100%.

As to `O=C(NCCN1CCC2(CC1)C(=O)NCN2c1cccnc1)c1ccc(Br)cc1`, for the setting “at 2 µM”, the inhibition was 0% (inactive).

Turning to `O=C(NCCN1CCC2(CC1)C(=O)NCN2Cc1cccnc1)c1ccc(F)c(F)c1`, the inhibition (at 2 µM) was 22% (inactive).

Take `O=C(NCCN1CCC2(CC1)C(=O)NCN2Cc1cccnc1)c1cc2cc(F)ccc2[nH]1`: the inhibition (at 2 µM) is 100%.

`Cc1ccc(S(=O)(=O)NCCN2CCC3(CC2)C(=O)NCN3Cc2cccnc2)cc1`: under “at 2 µM”, the inhibition was 10% (inactive).

Consider `O=C(NCCN1CCC2(CC1)C(=O)NCN2c1cncc(Br)c1)c1ccc2ccccc2c1`, for which the inhibition (at 2 µM) was 26% (inactive).

For `O=C(NCCN1CCC2(CC1)C(=O)NCN2c1cccnc1)c1ccc2ccccc2c1`, the inhibition (at 2 µM) was 0% (inactive).

As to `O=C(NCCN1CCC2(CC1)C(=O)NCN2C(=O)c1ccccc1)c1ccc2ccccc2c1`, the inhibition (at 20 µM) was 82%.

With `O=C(NCCN1CCC2(CC1)C(=O)NCN2Cc1cccnc1)c1ccc(C(F)(F)F)cc1`, where the note is “at 2 µM”, the inhibition is 5% (inactive).

On to `COc1cc(C(=O)NCCN2CCC3(CC2)C(=O)NCN3Cc2cccnc2)cc(OC)c1OC`, for which the inhibition (at 2 µM) is 15% (inactive).

With `O=C(NCCN1CCC2(CC1)C(=O)NCN2c1cccnc1)c1cc2cc(F)ccc2[nH]1`, the inhibition (at 2 µM) is 12% (inactive).

On to `O=C(NCCN1CCC2(CC1)C(=O)NCN2c1ccnc(F)c1)c1ccc2ccccc2c1`, for which the inhibition (at 2 µM) was 15% (inactive).

Consider `COc1cccc(C(=O)N2CNC(=O)C23CCN(CCNC(=O)c2ccc4ccccc4c2)CC3)c1`, for which the inhibition (at 20 µM) was 85%.

`Cc1cc(Br)cnc1C(=O)NCCN1CCC2(CC1)C(=O)NCN2Cc1cccnc1`: the inhibition (at 2 µM) is 1% (inactive).

Take `Cc1cc(N2CNC(=O)C23CCN(CCNC(=O)c2ccc4ccccc4c2)CC3)ccn1`: the inhibition (at 2 µM) is 0% (inactive).

Consider `O=C(NCCN1CCC2(CC1)C(=O)NCN2Cc1cccnc1)c1cccc(F)c1`, for which the inhibition (at 2 µM) was 14% (inactive).

For `O=C(NCCN1CCC2(CC1)C(=O)NCN2c1cncc(F)c1)c1ccc(F)c(F)c1`, the inhibition (at 2 µM) was 0% (inactive).

As for `O=C(NCCN1CCC2(CC1)C(=O)NCN2Cc1cccnc1)c1cc(F)c(F)c(F)c1`, for the setting “at 2 µM”, the inhibition was 10% (inactive).

As for `O=C(NCCN1CCC2(CC1)C(=O)NCN2Cc1cccnc1)c1ccc(F)cc1Cl`, the inhibition (at 2 µM) was 0% (inactive).

Consider `O=C(NCCN1C=CC2(CC1)C(=O)NCN2Cc1cccnc1)c1cccc2nsnc12` (centres undefined), for which the inhibition (at 2 µM) was 4% (inactive).

Turning to `O=C(NCCN1CCC2(CC1)C(=O)NCN2Cc1cccnc1)c1ccc(Cl)c(Cl)c1`, the inhibition (at 2 µM) is 63% (inactive).

Regarding `O=C(NCCN1CCC2(CC1)C(=O)NCN2Cc1ccncc1)c1ccc2ccccc2c1`, the inhibition (at 20 µM) was 100%.

On to `O=C(NCCN1CCC2(CC1)C(=O)NCN2Cc1cccnc1)c1nc(-c2ccc(F)cc2)no1`, for which the inhibition (at 2 µM) was 17% (inactive).

Turning to `O=C(NCCN1CCC2(CC1)C(=O)NCN2Cc1ccccc1Cl)c1ccc2ccccc2c1`, the inhibition (at 20 µM) is 100%.

In the case of `O=C(NCCN1CCC2(CC1)C(=O)NCN2C(=O)C1CCC1)c1ccc2ccccc2c1`, the inhibition (at 20 µM) was 100%.

`O=C(NCCN1CCC2(CC1)NCNC2=O)c1ccc2ccccc2c1`: the inhibition (at 20 µM) was 22% (inactive).

Regarding `O=C(NCCN1CCC2(CC1)C(=O)NCN2Cc1cccnc1)c1ccc(F)cc1F`, where the note is “at 2 µM”, the inhibition was 0% (inactive).

Consider `O=C(NCCN1CCC2(CC1)C(=O)NCN2Cc1cccnc1)c1ccc2ccccc2c1`, for which the inhibition is 80% (at 2 µM) and 100% (at 20 µM).

On to `O=C(NCCN1CCC2(CC1)C(=O)NCN2Cc1cccnc1)c1cc(F)cc(F)c1`, for which, where the note is “at 2 µM”, the inhibition was 4% (inactive).

On to `O=C(NCCN1CCC2(CC1)C(=O)NCN2Cc1cccnc1)c1cc2cccnc2[nH]1`, for which, for the setting “at 2 µM”, the inhibition was 19% (inactive).

`O=C(NCCN1CCC2(CC1)C(=O)NCN2c1cncc(F)c1)c1ccc2ccccc2c1`: the inhibition (at 2 µM) is 18% (inactive).

In the case of `O=C(NCCN1CCC2(CC1)C(=O)NCN2Cc1cccnc1)c1ccccc1F`, for the setting “at 2 µM”, the inhibition is 0% (inactive).

On to `O=C(NCCN1CCC2(CC1)C(=O)NCN2Cc1ccccc1Br)c1ccc2ccccc2c1`, for which the inhibition (at 20 µM) is 100%.

As to `O=C(NCCN1CCC2(CC1)C(=O)NCN2Cc1cccnc1)c1ccc(Cl)cc1Cl`, where the note is “at 2 µM”, the inhibition is 0% (inactive).

Take `O=C(NCCN1CCC2(CC1)C(=O)NCN2Cc1cccnc1)c1ccnc2ccccc12`: under “at 2 µM”, the inhibition was 0% (inactive).

With `O=C(NCCN1CCC2(CC1)C(=O)NCN2Cc1cccc(OC(F)(F)F)c1)c1ccc2ccccc2c1`, the inhibition (at 20 µM) was 46% (inactive).

As to `Cn1c(C(=O)NCCN2CCC3(CC2)C(=O)NCN3Cc2cccnc2)cc2ccccc21`, the inhibition (at 2 µM) was 14% (inactive).

With `O=C(NCCN1CCC2(CC1)C(=O)NCN2c1cncc(F)c1)c1cc2cc(F)ccc2[nH]1`, where the note is “at 2 µM”, the inhibition is 15% (inactive).

For `O=C(NCCN1CCC2(CC1)C(=O)NCN2Cc1cccnc1)c1c(F)ccc(Cl)c1F`, the inhibition (at 2 µM) was 18% (inactive).

For the molecule `O=C(NCCN1CCC2(CC1)C(=O)NCN2Cc1cccnc1)c1ccc(Br)cc1`, for the setting “at 2 µM”, the inhibition is 48% (inactive).

Take `O=C(NCCN1CCC2(CC1)C(=O)NCN2Cc1ccccc1F)c1ccc2ccccc2c1`: the inhibition (at 20 µM) was 65% and 100%.

Regarding `O=C(NCCN1CCC2(CC1)C(=O)NCN2c1cncc(F)c1)c1ccc(F)cc1`, under “at 2 µM”, the inhibition is 3% (inactive).

Regarding `O=C(NCCN1CCC2(CC1)C(=O)NCN2C(=O)c1cccc(F)c1)c1ccc2ccccc2c1`, for the setting “at 20 µM”, the inhibition is 84%.

Turning to `O=C(NCCN1CCC2(CC1)C(=O)NCN2c1cccnc1)c1ccc(F)cc1`, the inhibition (at 2 µM) is 2% (inactive).

Consider `O=C(NCCN1CCC2(CC1)C(=O)NCN2Cc1cccnc1)c1cccc(C(F)(F)F)c1`, for which, under “at 2 µM”, the inhibition is 0% (inactive).

For `O=C(NCCN1CCC2(CC1)C(=O)NCN2C(=O)C1CC1)c1ccc2ccccc2c1`, the inhibition (at 20 µM) was 100%.

In the case of `O=C(NCCN1CCC2(CC1)C(=O)NCN2c1cncc(F)c1)c1cc(F)c(F)c(F)c1`, the inhibition (at 2 µM) was 2% (inactive).

With `O=C(NCCN1CCC2(CC1)C(=O)NCN2c1cccnc1)c1ccc(F)c(F)c1`, where the note is “at 2 µM”, the inhibition is 7% (inactive).

For the molecule `O=C(NCCN1CCC2(CC1)C(=O)NCN2Cc1cccnc1)c1c[nH]c2ccccc12`, under “at 2 µM”, the inhibition is 23% (inactive).

The values above are taken from PubChem BioAssay AID743409 (Vanderbilt Specialized Chemistry Center, 2014).
